Results from US5350757A, “Substituted 1,2,3,4-tetrahydroisoquinolines with angiotensin II receptor antagonist properties” (Warner-Lambert Company, priority 1993, dated 1994).

Key:
angiotensin type 2 (AT2) [1] = molecular target: T1, angiotensin type 2 (AT2) (Oryctolagus cuniculus, UniProt G1T351); assay: AT2 binding assay (rabbit uterus binding assay); conditions: for IC50: rabbit uterus binding assay
T1 construct: from tissue; host or cells: rabbit uterus
T1 sequence (G1T351 1-363): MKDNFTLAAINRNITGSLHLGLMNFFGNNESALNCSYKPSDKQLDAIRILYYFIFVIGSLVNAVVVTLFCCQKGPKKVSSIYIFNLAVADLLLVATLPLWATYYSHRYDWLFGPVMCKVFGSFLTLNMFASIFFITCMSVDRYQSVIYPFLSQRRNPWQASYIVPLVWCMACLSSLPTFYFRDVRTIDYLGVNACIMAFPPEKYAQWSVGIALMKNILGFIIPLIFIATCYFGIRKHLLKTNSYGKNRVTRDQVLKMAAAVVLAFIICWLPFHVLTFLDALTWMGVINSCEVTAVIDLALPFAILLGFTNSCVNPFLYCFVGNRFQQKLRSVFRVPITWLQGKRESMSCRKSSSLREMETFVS
Excerpt: (§1) A typical compound active in a rabbit uterus binding assay for detecting angiotensin type 2 (AT2) antagonists is compound 6 below. AT2 Binding Assay is a modification of the procedure by D. T. Dudley, et al, Mol. Pharmacol. 38:370 (1990) .

angiotensin type 2 (AT2) [2] = assay: AT2 binding assay (rabbit uterus binding assay); conditions: AT2 versus AT1
Excerpt: as §1

AT1 = AT1 binding assay; conditions: at 10^-5 M concentration
AT-1 receptors = conditions: cited from earlier work

Row | Structure (SMILES) | IC50 (angiotensin type 2 (AT2) [1]) [nM] | further results
1 | COc1ccc2c(c1OCc1ccccc1)CC(C(=O)O)N(C(=O)C(c1ccc(Cl)cc1)c1ccc(Cl)cc1)C2 (racemic) [Example 23, (RS)-2-[Bis(4-chlorophenyl)acetyl]-1,2,3,4-tetrahydro-6-methoxy-5-(phenylmethoxy)-3-isoquinolinecarboxylic acid] | 24.2 | –
2 | COc1ccc(COc2c(OC)ccc3c2CC(C(=O)O)N(C(=O)C(c2ccccc2)c2ccccc2)C3)cc1C (racemic) [Example 35] | 1.9 | –
3 | CCOC(=O)C1Cc2c(ccc(OC)c2OCc2ccccc2)CN1C(=O)C(c1ccccc1)c1ccccc1 (racemic) [Example 30, (RS)-2-(Diphenylacetyl)-1,2,3,4-tetrahydro-6-methoxy-5-phenylmethoxy-3-isoquinolinecarboxylic acid, ethyl ester] | 151 | –
4 | COc1cc2c(cc1OCc1ccccc1)CC(C(=O)O)N(C(=O)C(c1ccccc1)c1ccccc1)C2 (racemic) [Example 21, (RS)-2-(Diphenylacetyl)-1,2,3,4-tetrahydro-7-methoxy-6-(phenylmethoxy) -3-isoquinolinecarboxylic acid] | 58.5 | –
5 | COc1ccc2c(c1OCc1ccc(C(=O)O)cc1)CC(C(=O)O)N(C(=O)C(c1ccccc1)c1ccccc1)C2 (racemic) [Example 33, (RS)-5-(4-Carboxyphenylmethoxy)-2-(diphenylacetyl)-1,2,3,4-tetrahydro-6-methoxy-3-isoquinolinecarboxylic acid] | 752 | –
6 | CCCCc1nc(Cl)c(CO)n1Cc1ccc(-c2ccccc2-c2nn[nH]n2)cc1 [Dup753] | – | selective antagonism of AT-1 receptors (AT-1 receptors): selectively antagonized

Continued, in another order:

Row | IC50 (angiotensin type 2 (AT2) [1]) [nM] | Structure (SMILES) | further results
7 | 1.6 | COc1ccc2c(c1OCc1ccccc1)CC(C(=O)O)N(C(=O)C(c1ccccc1)C1CCCC1)C2 (racemic) [Example 24, (RS)-2-(Cyclopentylphenylacetyl)-1,2,3,4-tetrahydro-6-methoxy-5-(phenylmethoxy)-3-isoquinolinecarboxylic acid] | –
8 | 1110 | COc1ccc(NC(=O)N2Cc3ccc(OC)c(OCc4ccccc4)c3CC2C(=O)O)cc1 (racemic) [Example 27, (RS)-1,2,3,4-Tetrahydro-6-methoxy-2-[[(4-methoxyphenyl)amino]carbonyl]-5-(phenylmethoxy)-3-isoguinolinecarboxylic acid] | –
9 | 8.4 | COc1ccc2c(c1OCc1ccccc1)CC(C(=O)O)N(C(=O)N(C)c1ccccc1)C2 (racemic) [Example 26] | –
10 | 2.8 | COc1ccc2c(c1OCc1ccccc1)CC(C(=O)O)N(C(=O)C(c1ccccc1)c1ccccc1)C2 (racemic) [Example 20, (RS)-2-(Diphenylacetyl)-1,2,3,4-tetrahydro-6-methoxy-5-(phenylmethoxy)-3-isoquinolinecarboxylic acid] | binding affinity for the AT2 receptor site, in words (angiotensin type 2 (AT2) [1]): high binding affinity; selectivity for the AT2 site (angiotensin type 2 (AT2) [2]): highly selective for the AT2 site; AT1 binding assay activity (AT1): inactive
11 | 117 | COc1ccc2c(c1OCc1ccccc1)CC(C(=O)O)N(C(=O)Cc1c(Cl)cccc1Cl)C2 (racemic) [Example 25, (RS)-2-[(2,6-Dichlorophenyl)acetyl]-1,2,3,4-tetrahydro-6-methoxy-5-(phenylmethoxy)-3-isoquinolinecarboxylic acid] | –
12 | 8.9 | COc1ccc2c(c1OCCc1ccccc1)CC(C(=O)O)N(C(=O)C(c1ccccc1)c1ccccc1)C2 (racemic) [Example 22, (RS)-2-(Diphenylacetyl)-1,2,3,4-tetrahydro-6-methoxy-5-(2-phenylethoxy)-3-isoquinolinecarboxylic acid] | –
